Results on 13 compounds are retold here after ChEMBL document CHEMBL6121063, “Identification of a Potent and Selective CDK9 Degrader as a Targeted Therapeutic Option for the Treatment of Small-Cell Lung Cancer” (J Med Chem, 2025).

Each structure is given as a SMILES string.

The target in test [1] is T1, Protein cereblon/Cyclin-dependent kinase 9 (Homo sapiens, UniProt P50750+Q96SW2). Put plainly: PROTAC activity at CRBN/CDK9 in human NCI-H69 cells assessed as induction of CDK9 degradation at 10 nM by Western blot analysis relative to control. It is filed as cell-based. Background: A western blot detects proteins with antibodies after separation by electrophoresis.
The next test deals with NCI-H69. The test can be described thus: Antiproliferative activity against human NCI-H69 cells assessed as inhibition of cell growth incubated for 72 hrs by CCK8 assay. To be noted: NCI-H69, 72 h. Type of test: functional, cell-based. A general note: Formazan colour is commonly taken as a measure of viable cells.
Another test relates to NCI-H446. The test can be described thus: Antiproliferative activity against human NCI-H446 cells assessed as inhibition of cell growth incubated for 72 hrs by CCK8 assay. It is filed as functional, cell-based. To be noted: NCI-H446, 72 h.
Test [2] deals with T1, Protein cereblon/Cyclin-dependent kinase 9. Put plainly: PROTAC activity at CRBN/CDK9 in human NCI-H446 cells assessed as induction of CDK9 degradation at 10 nM by Western blot analysis relative to control. Type of test: cell-based.

T1 sequence (P50750 whole entry, looked up): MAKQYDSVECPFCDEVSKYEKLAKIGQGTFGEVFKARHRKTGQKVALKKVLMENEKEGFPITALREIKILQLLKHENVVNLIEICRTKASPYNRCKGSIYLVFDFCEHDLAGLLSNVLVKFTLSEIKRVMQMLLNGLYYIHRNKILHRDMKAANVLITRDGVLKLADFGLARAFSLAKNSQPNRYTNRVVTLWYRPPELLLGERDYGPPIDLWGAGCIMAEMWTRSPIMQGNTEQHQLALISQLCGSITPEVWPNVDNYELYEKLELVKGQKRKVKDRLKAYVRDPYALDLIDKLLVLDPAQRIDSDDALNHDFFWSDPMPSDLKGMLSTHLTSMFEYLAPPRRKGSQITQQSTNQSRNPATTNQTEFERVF
T1 sequence (Q96SW2 whole entry, looked up): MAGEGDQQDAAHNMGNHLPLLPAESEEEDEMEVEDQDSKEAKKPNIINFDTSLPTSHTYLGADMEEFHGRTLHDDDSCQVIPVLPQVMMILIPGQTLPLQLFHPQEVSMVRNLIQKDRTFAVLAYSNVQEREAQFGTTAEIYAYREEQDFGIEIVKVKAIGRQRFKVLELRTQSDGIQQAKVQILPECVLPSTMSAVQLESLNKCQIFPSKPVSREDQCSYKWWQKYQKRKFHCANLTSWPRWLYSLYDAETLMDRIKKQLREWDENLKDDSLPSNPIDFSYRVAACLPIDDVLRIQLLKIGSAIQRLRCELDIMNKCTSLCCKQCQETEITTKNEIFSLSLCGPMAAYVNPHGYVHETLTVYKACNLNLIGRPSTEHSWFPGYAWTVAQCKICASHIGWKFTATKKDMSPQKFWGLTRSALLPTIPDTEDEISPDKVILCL

As a reminder, the IC50 is the concentration that inhibits the measured activity by half. Consider `O=C1CCC(N2C(=O)c3cccc(NCCCCCC(=O)N4CCC(NC(=O)c5n[nH]cc5NC(=O)c5c(Cl)cccc5Cl)CC4)c3C2=O)C(=O)N1` (configuration not stated), for which the Activity in test [1] was determined as 17.1%; in test [2], 27.1%. In addition, the half-maximal inhibitory concentration (IC50) in the test on NCI-H69 and with NCI-H446 was greater than 1 µM throughout.

Regarding `O=C(CNc1cccc2c1C(=O)N(C1CCC(=O)NC1=O)C2=O)NCCCCCCCCCCC(=O)N1CCC(NC(=O)c2n[nH]cc2NC(=O)c2c(Cl)cccc2Cl)CC1` (configuration not stated), the Activity in test [1] turned out to be 21.8%; in test [2], 27.9%. Also, the half-inhibitory concentration (IC50) came to 0.161 µM in the test with NCI-H69 and 0.148 µM with NCI-H446.

For `O=C1CCC(N2C(=O)c3cccc(NCCCCCCN4CCC(NC(=O)c5n[nH]cc5NC(=O)c5c(Cl)cccc5Cl)CC4)c3C2=O)C(=O)N1` (configuration not stated), the results for the Activity in test [1] and in test [2] were 34% and 39.4%, respectively. Besides, the results for the concentration for half-maximal inhibition (IC50) in the test with NCI-H69 and in the test with NCI-H446 were 0.0953 µM and 0.0542 µM, respectively.

For the compound `O=C1CCC(N2C(=O)c3ccc(N4CCN(C(=O)CN5CCC(CN6CCC(NC(=O)c7n[nH]cc7NC(=O)c7c(Cl)cccc7Cl)CC6)CC5)CC4)cc3C2=O)C(=O)N1` (configuration not stated), the results for the Activity in test [1] and in test [2] were 51.5% and 49.9%, respectively. Moreover, the concentration for half-maximal inhibition (IC50) in the test with NCI-H69 amounted to 0.00575 µM; in the test on NCI-H446, 0.0181 µM.

On to `O=C1CCC(N2C(=O)c3cccc(NCCCCCCC(=O)N4CCC(NC(=O)c5n[nH]cc5NC(=O)c5c(Cl)cccc5Cl)CC4)c3C2=O)C(=O)N1` (configuration not stated), for which the Activity in test [1] came to 0.132%; in test [2], 11.2%. The half-inhibitory concentration (IC50) with NCI-H69 and with NCI-H446 was greater than 1 µM in each case.

As to `O=C1CCC(N2C(=O)c3cccc(NCCCCCN4CCC(NC(=O)c5n[nH]cc5NC(=O)c5c(Cl)cccc5Cl)CC4)c3C2=O)C(=O)N1` (configuration not stated), the values for the Activity in test [1] and in test [2] were 8.01% and 12.8%, respectively. The 50% inhibitory concentration (IC50) in the test on NCI-H69 amounted to 0.217 µM; in the test with NCI-H446 it was 0.136 µM.

Consider `O=C1CCC(N2C(=O)c3cccc(NCCCCCCCN4CCC(NC(=O)c5n[nH]cc5NC(=O)c5c(Cl)cccc5Cl)CC4)c3C2=O)C(=O)N1` (configuration not stated), for which the Activity was 10.6% in test [1] and 21.3% in test [2]. The IC50 in the test with NCI-H69 is 0.179 µM; in the test on NCI-H446, 0.0629 µM.

As for `O=C1CCC(N2C(=O)c3ccc(N4CCC(OC(=O)CN5CCC(NC(=O)c6n[nH]cc6NC(=O)c6c(Cl)cccc6Cl)CC5)CC4)cc3C2=O)C(=O)N1` (configuration not stated), the Activity in test [1] amounted to 25.2%; in test [2], 18.6%. Moreover, the IC50 in the test with NCI-H69 is 0.268 µM; in the test on NCI-H446, greater than 1 µM.

Regarding `O=C1CCC(N2C(=O)c3ccc(N4CCN(C(=O)CCCC(=O)N5CCC(NC(=O)c6n[nH]cc6NC(=O)c6c(Cl)cccc6Cl)CC5)CC4)cc3C2=O)C(=O)N1` (configuration not stated), the Activity in test [1] was found to be 3.8%; in test [2], 3.22%. Further, the results for the IC50 with NCI-H69 and with NCI-H446 were 0.261 µM and 0.352 µM, respectively.

Turning to `O=C1CCC(N2C(=O)c3ccc(N4CCN(C(=O)CN5CCC(NC(=O)c6n[nH]cc6NC(=O)c6c(Cl)cccc6Cl)CC5)CC4)cc3C2=O)C(=O)N1` (configuration not stated), the results for the Activity in test [1] and in test [2] were 44.2% and 51.9%, respectively. Also, the half-inhibitory concentration (IC50) was determined as 0.0538 µM in the test on NCI-H69 and 0.0179 µM in the test with NCI-H446.

With `O=C1CCC(N2C(=O)c3ccc(N4CC5CN(CC(=O)N6CCC(NC(=O)c7n[nH]cc7NC(=O)c7c(Cl)cccc7Cl)CC6)CC5C4)cc3C2=O)C(=O)N1` (configuration not stated), the Activity in test [1] was 49.4%; in test [2] it was 38.9%. Moreover, the values for the concentration for half-maximal inhibition (IC50) in the test on NCI-H69 and in the test on NCI-H446 were 0.142 µM and 0.157 µM, respectively.

`CN1C(=O)CCC(Nc2cccc(N3CCN(CC4CCN(CC(=O)N5CCC(NC(=O)c6n[nH]cc6NC(=O)c6c(Cl)cccc6Cl)CC5)CC4)CC3)c2)C1=O` (configuration not stated): the Activity in test [1] is 12.3%; in test [2], 3.15%. The IC50 in the test on NCI-H69 turned out to be 0.501 µM; in the test on NCI-H446 it was 0.592 µM.

Consider `O=C1CCC(Nc2ccc(N3CCN(CC4CCN(CC(=O)N5CCC(NC(=O)c6n[nH]cc6NC(=O)c6c(Cl)cccc6Cl)CC5)CC4)CC3)c(F)c2)C(=O)N1` (configuration not stated), for which the Activity in test [1] was 66.1%; in test [2] it was 79.3%. The concentration for half-maximal inhibition (IC50) in the test on NCI-H69 worked out at 0.0442 µM; in the test on NCI-H446, 0.0561 µM.
